Measurements taken from patent US20070275948A1, “7-[4-(4-Chlorobenzyloxy)Benzenesulfonyl]-8-Methoxy-3-Methyl-2,3,4,5-Tetrahydro-1h-3-Benzazepinium Maleate Or Tosylate As antipyschotics” (priority 2003, published 2007).

What was measured:
[1] = Hygroscopicity / solid-state stability to humidity; conditions: for stability with respect to hygroscopicity and loss of water / changes when exposed to very high humidity: anhydrates; for stability over the free base and over the hydrochloride salt, particularly with respect to hygroscopicity: compared with free base and hydrochloride salt
[2] = target: T1, serotonin 5-HT2C receptor (Homo sapiens, UniProt P28335); experiment: Antagonist affinity for serotonin 5-HT2C receptor; assay type: binding
T1 sequence (P28335 33-458): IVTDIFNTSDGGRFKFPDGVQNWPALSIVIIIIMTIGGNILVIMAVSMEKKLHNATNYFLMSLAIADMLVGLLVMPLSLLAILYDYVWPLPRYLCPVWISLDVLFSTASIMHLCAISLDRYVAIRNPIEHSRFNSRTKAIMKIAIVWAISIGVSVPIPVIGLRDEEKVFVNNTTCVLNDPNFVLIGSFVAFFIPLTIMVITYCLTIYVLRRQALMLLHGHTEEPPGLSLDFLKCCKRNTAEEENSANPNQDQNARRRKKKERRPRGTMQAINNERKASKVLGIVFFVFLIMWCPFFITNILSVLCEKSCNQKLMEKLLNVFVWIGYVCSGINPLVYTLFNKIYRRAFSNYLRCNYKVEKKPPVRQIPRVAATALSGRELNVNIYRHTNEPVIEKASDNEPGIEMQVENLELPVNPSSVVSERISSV

[3] = target: dopamine D3 receptor (Homo sapiens, UniProt P35462); experiment: Affinity for dopamine D3 receptor; assay type: binding; conditions: for affinity for dopamine D3 relative to D2 receptors: D3 versus D2
[4] = target: dopamine D2 receptor (Homo sapiens, UniProt P14416); experiment: Affinity for dopamine D2 receptor; assay type: binding
Sequence of dopamine D2 receptor (P14416 whole entry): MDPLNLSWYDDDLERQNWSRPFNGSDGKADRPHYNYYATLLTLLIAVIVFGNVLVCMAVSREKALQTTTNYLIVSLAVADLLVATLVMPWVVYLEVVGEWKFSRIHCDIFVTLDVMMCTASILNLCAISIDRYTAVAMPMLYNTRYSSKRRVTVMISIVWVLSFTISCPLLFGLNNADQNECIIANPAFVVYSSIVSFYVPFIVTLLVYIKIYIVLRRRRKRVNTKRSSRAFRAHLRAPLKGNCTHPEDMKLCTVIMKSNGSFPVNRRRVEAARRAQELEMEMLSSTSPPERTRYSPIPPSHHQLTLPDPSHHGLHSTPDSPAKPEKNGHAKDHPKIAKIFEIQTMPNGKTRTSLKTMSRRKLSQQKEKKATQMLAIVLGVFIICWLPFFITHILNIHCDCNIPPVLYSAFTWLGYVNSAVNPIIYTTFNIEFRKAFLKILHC

Sequence of dopamine D3 receptor (P35462 whole entry, species assumed): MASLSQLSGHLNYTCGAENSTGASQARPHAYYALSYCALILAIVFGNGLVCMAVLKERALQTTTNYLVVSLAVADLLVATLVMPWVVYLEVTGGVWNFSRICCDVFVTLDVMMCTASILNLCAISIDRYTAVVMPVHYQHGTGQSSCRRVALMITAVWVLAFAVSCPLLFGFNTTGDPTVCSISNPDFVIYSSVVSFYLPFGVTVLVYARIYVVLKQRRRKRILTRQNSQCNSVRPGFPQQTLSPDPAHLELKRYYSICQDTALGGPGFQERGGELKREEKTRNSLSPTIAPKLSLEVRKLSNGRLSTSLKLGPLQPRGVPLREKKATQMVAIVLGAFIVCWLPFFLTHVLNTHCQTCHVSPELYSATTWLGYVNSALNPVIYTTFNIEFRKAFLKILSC

Compound	hygroscopicity ([1]; multiple forms, all of those tested)	antagonist affinity for the serotonin 5-HT2C receptor [2]	stability with respect to hygroscopicity and loss of water [1]	changes when exposed to very high humidity [1]	stability over the free base and over the hydrochloride salt, particularly with respect to hygroscopicity [1]	affinity for dopamine D3 receptors [3]	affinity for dopamine D3 relative to D2 receptors [3]	affinity for dopamine D2 receptors [4]
COc1cc2c(cc1S(=O)(=O)c1ccc(OCc3ccc(Cl)cc3)cc1)CCN(C)CC2 [free base, 7-[4-(4-chlorobenzyloxy)benzenesulfonyl]-8-methoxy-3-methyl-2,3,4,5-tetrahydro-1H-3-benzazepine]	hygroscopic	–	–	–	–	–	–	–
COc1cc2c(cc1S(=O)(=O)c1ccc(OCc3ccc(Cl)cc3)cc1)CCN(C)CC2.Cc1ccc(S(=O)(=O)O)cc1 [tosylate, 7-[4-(4-Chlorobenzyloxy)benzenesulfonyl]-8-methoxy-3-methyl-2,3,4,5-tetrahydro-1H-3-benzazepinium p-toluenesulfonate]	–	antagonist affinity	particular stability	reversible changes	improved stability	exhibit affinity	greater affinity for dopamine D3 than for D2 receptors	exhibit affinity
COc1cc2c(cc1S(=O)(=O)c1ccc(OCc3ccc(Cl)cc3)cc1)CCN(C)CC2.O=C(O)/C=C\C(=O)O [maleate, 7-[4-(4-chlorobenzyloxy)benzenesulfonyl]-8-methoxy-3-methyl-2,3,4,5-tetrahydro-1H-3-benzazepinium maleate]	–	antagonist affinity	particular stability	reversible changes	improved stability	exhibit affinity	greater affinity for dopamine D3 than for D2 receptors	exhibit affinity
